Laboratory results as given in patent US9765043B2, “Salts of potassium ATP channel openers and uses thereof” (Essentialis, Inc., priority 2012, dated 2017).
Entries after “also recorded” stand apart in the source; their conditions may differ. Read-outs that look alike come from different tables or passages of the source.

Assays:
[1] = Slurry studies of solid form inter-conversion; format: physicochemical; details: for Slurries: diazoxide potassium salt, room-temperature slurry; for propensity of inter-conversion of the solid form in slurry: room temperature, absence of light, up to 14 days, solvents per substance (water, IPA, CH2Cl2, toluene, n-heptane, EtOAc, MeCN, THF, t-AmOH)
[2] = Moisture sorption analysis; format: physicochemical; details: 25° C.
Protocol: Moisture Sorption Analysis was performed with a Hiden IGAsorp Moisture Sorption Instrument. […] The samples were allowed to equilibrate to an asymptotic weight at each point for a maximum of 4 hours. […] The resulting samples after desorption were dried at 80° C. for two hours and analyzed by XRPD.

[3] = Form conversion and degradation under thermal stress
Protocol: Studies were also conducted to evaluate the likelihood for conversion and degradation under thermal stress.

Zucker rats = details: oral 1-10 mg/kg/day for 14 days; cited from earlier work
healthy volunteers [4] = tested on: healthy volunteers
Protocol: (§1) A randomized double-blind, placebo-controlled clinical trial was conducted in 24 healthy volunteers. They were randomized in a 2:1 ratio of treated to placebo. […] The dose was administered once per day in the morning for a period of 7 days. A number of lipid parameters were measured at baseline and again on day 7 including fasting triglycerides, total cholesterol, LDL cholesterol, HDL cholesterol, and non-HDL cholesterol. Additionally, blood pressure was measured on a daily basis.

healthy volunteers [5] = tested on: healthy volunteers; remark: listed apart in the source
Protocol: as §1
In PK008, the dose was administered as one and one ½ tablet formulation K′.

[6] = tested on: hypertriglyceridemic patients; assay: Clinical study in 12 hypertriglyceridemic patients (formulation U / K′ crossover): lipids; format: in vivo, human; details: 435 mg/day diazoxide choline once per day, 15 days
Protocol: A clinical study was conducted in 12 hypertriglyceridemic patients. […] Treatment continued for 16 days. The endpoint of the study was percentage change from baseline to day 15 of triglycerides, total cholesterol, LDL cholesterol, HDL cholesterol and non-HDL cholesterol. Lipid parameters were measured at baseline and on days 7 and 15. Blood pressure was collected at multiple time points.

[7] = Excipient compatibility study for diazoxide choline salt; format: physicochemical
[8] = tested on: Zucker Diabetic Fatty (ZDF) rats; details: 150 mg/kg/day, 8 weeks; cited from earlier work
[9] = Study EC004, 435 mg, 7 days, Baseline
[10] = Study EC004, 435 mg, 7 days, End of treatment
[11] = Study TR002, 508 mg, 49 days, Baseline
[12] = Study TR002, 508 mg, 49 days, End of treatment
[13] = 60° C., closed environment, protected from light, 7 and 14 days, XRPD, DSC, HPLC

CC1=NS(=O)(=O)c2cc(Cl)ccc2[N-]1.CC1=NS(=O)(=O)c2cc(Cl)ccc2[N-]1.O.[K+].[K+] [Diazoxide potassium salt Form D]
Slurries [1]: Converted to Form D

C1COCCO1.CC1=NS(=O)(=O)c2cc(Cl)ccc2[N-]1.CC1=NS(=O)(=O)c2cc(Cl)ccc2[N-]1.[K+].[K+] [Diazoxide potassium salt Form F]
Moisture sorption (hygroscopicity) [2]: hygroscopic solid | Thermal ([3]; diazoxide potassium salt, thermal stress, 7 days): Stable (7 days) | Slurries [1]: Converted to Form D | propensity of inter-conversion of the solid form in slurry [1]: readily converted to Form D in all slurry solvents utilized; also recorded: conversion to Form D was observed in all solvents

CC1=Nc2ccc(Cl)cc2S(=O)(=O)[N-]1.C[N+](C)(C)CCO [Diazoxide choline salt Form A]
Moisture sorption (hygroscopicity) [2]: hygroscopic solid | water absorbed at 60% RH ([2]; listed as Form A): 2.4 wt % | conversion and degradation under thermal stress [3]: Started to convert to Form | propensity of inter-conversion of the solid form in slurry ([1]; listed as Form A): conversion to Form B was observed after seven days; also recorded: readily converted to Form B in all slurry solvents utilized; also recorded: Converted to Form B after

N#CNC(=NCCc1ccccc1Cl)c1cncc(N)c1 [KRN4884]
serum triglyceride levels (Zucker rats): dose dependently reduce serum triglyceride levels

CC1=Nc2ccc(Cl)cc2S(=O)(=O)[N-]1.C[N+](C)(C)CCO [Choline diazoxide salt]
conversion and degradation under thermal stress [3]: did not show any significant degradation | propensity of inter-conversion of the solid form in slurry ([1]; listed as choline salt): no propensity of inter-conversion | HDL cholesterol, mean ± SEM (healthy volunteers [4]; 300 mg diazoxide/day, Baseline): 49 ± 3.3 mg/dL | LDL cholesterol, mean ± SEM (healthy volunteers [4]; 300 mg diazoxide/day, Baseline): 111 ± 5.8 mg/dL | Total cholesterol, mean ± SEM (healthy volunteers [4]; 300 mg diazoxide/day, Baseline): 175 ± 7.5 mg/dL | Triglycerides, mean ± SEM (healthy volunteers [4]; 300 mg diazoxide/day, Baseline): 76 ± 7.8 mg/dL | non-HDL cholesterol, mean ± SEM (healthy volunteers [4]; 300 mg diazoxide/day, Baseline): 126 ± 6.6 mg/dL | HDL cholesterol, Percent change from baseline (healthy volunteers [4]; 300 mg diazoxide/day, Day 7): 8.2% | HDL cholesterol, mean ± SEM (healthy volunteers [4]; 300 mg diazoxide/day, Day 7): 53 ± 2.9 mg/dL | LDL cholesterol, Percent change from baseline (healthy volunteers [4]; 300 mg diazoxide/day, Day 7): −5.4% | LDL cholesterol, mean ± SEM (healthy volunteers [4]; 300 mg diazoxide/day, Day 7): 105 ± 4.9 mg/dL | Total cholesterol, Percent change from baseline (healthy volunteers [4]; 300 mg diazoxide/day, Day 7): −2.3% | Total cholesterol, mean ± SEM (healthy volunteers [4]; 300 mg diazoxide/day, Day 7): 171 ± 6.4 mg/dL | Triglycerides, Percent change from baseline (healthy volunteers [4]; 300 mg diazoxide/day, Day 7): −13.2% | Triglycerides, mean ± SEM (healthy volunteers [4]; 300 mg diazoxide/day, Day 7): 66 ± 3.9 mg/dL | non-HDL cholesterol, Percent change from baseline (healthy volunteers [4]; 300 mg diazoxide/day, Day 7): −6.3% | non-HDL cholesterol, mean ± SEM (healthy volunteers [4]; 300 mg diazoxide/day, Day 7): 118 ± 5.5 mg/dL | reduction in total cholesterol, LDL cholesterol and non-HDL cholesterol vs placebo arm (healthy volunteers [4]; baseline to day 7, 300 mg/day diazoxide as formulation U): greater for each lipid parameter than the corresponding reduction in the placebo arm | Diastolic blood pressure (healthy volunteers [5]; [9]): 69.4 mmHg | Systolic blood pressure (healthy volunteers [5]; [9]): 113.2 mmHg | Diastolic blood pressure (healthy volunteers [5]; [10]): 63.2 mmHg | Systolic blood pressure (healthy volunteers [5]; [10]): 113.5 mmHg | Diastolic blood pressure (healthy volunteers [5]; [11]): 77.7 mmHg | Systolic blood pressure (healthy volunteers [5]; [11]): 118.1 mmHg | Diastolic blood pressure (healthy volunteers [5]; [12]): 67.0 mmHg | Systolic blood pressure (healthy volunteers [5]; [12]): 117.0 mmHg | lipid response [6]: marked reductions in triglycerides, total cholesterol, LDL cholesterol, and nonHDL cholesterol and a marked increase in HDL cholesterol

CC1=NS(=O)(=O)c2cc(Cl)ccc2[N-]1.[Na+] [Sodium diazoxide salt]
water absorbed at 60% RH [2]: 1.2 wt % | water absorbed at 80% RH ([2]; 80% RH): 6.6 wt % | conversion and degradation under thermal stress [3, 13]: little propensity to change form or degrade | propensity of inter-conversion of the solid form in slurry [1]: no propensity of inter-conversion

CC1=NS(=O)(=O)c2cc(Cl)ccc2[N-]1.[K+] [Potassium diazoxide salt]
water absorbed at 60% RH [2]: 5.4 wt % | water absorbed at 90% RH [2]: 38.3 wt % | conversion and degradation under thermal stress [3, 13]: did not show any significant degradation | propensity of inter-conversion of the solid form in slurry [1]: no propensity of inter-conversion

CC1=Nc2ccc(Cl)cc2S(=O)(=O)N1 [Diazoxide Control]
1 Month 40° C./75% RH % (w/w) ([7]; one-month storage 40° C./75% RH): 99.0 % (w/w) | 1 Month 50° C. % (w/w) ([7]; one-month storage 50° C.): 99.4 % (w/w)

CC1=Nc2ccc(Cl)cc2S(=O)(=O)[N-]1.C[N+](C)(C)CCO [Diazoxide choline salt Form B]
water absorbed at 60% RH ([2]; listed as Form B): 7.4 wt % | conversion and degradation under thermal stress [3]: Stable after 14 days at | propensity of inter-conversion of the solid form in slurry ([1]; listed as Form B): form conversion was not observed; also recorded: Stable after 14 days in

CC1=Nc2ccc(Cl)cc2S(=O)(=O)N1 [Diazoxide, 7-chloro-3-methyl-2H-1,2,4-benzothiadiazine 1,1 dioxide, reference compound]
water absorbed at 60% RH [2]: approximately 0.04 wt % | water absorbed at 90% RH [2]: ~0.20 wt % | Moisture sorption (hygroscopicity) ([2]; listed as Free form): no hysteresis | conversion and degradation under thermal stress [3, 13]: no conversion or degradation | propensity of inter-conversion of the solid form in slurry [1]: did not convert to alternate crystal forms | hepatic lipid contents [8]: decreased hepatic triglycerides, long chain acyl-CoA and cholesterol contents
